“Also recorded” adds a separate entry of the source. Where two headings read alike, the source gives them in different places.
Columns and labels:
[1] = system: ER activity signature (87 genes); experiment: ER activation score by GSVA of RNA-seq from paired tumor biopsies; type: in vivo, human
From the text: Total RNA was extracted from FFPE tissue (slides of 10 μm). A targeted-enrichment RNA-seq approach was applied utilizing KAPA RNA HyperPrep and whole exome […] kits (Roche) followed by the generation of sequencing reads with NextSeq 500 (Illumina). RNA-seq FASTQ files were processed with STAR aligner and Cufflinks to generate gene-level fragments per kilobase of transcript per million mapped reads (FPKM)[34],[47],[48]. Those FPKM values were converted to the gene-level estimation of expression in transcripts per million (TPM). The TPM data were then quantile-normalized and log2-transformed. GSVA was employed to calculate the ER activation score by using the ER activity signature (87 genes)[31]. […] Results were analyzed using descriptive statistics.

[2] = 24 h urine fraction, renal elimination of amcenestrant; type: in vivo, human; conditions: Part B, QD administration
Ki67 = experiment: Paired tumor biopsy IHC, Ki67 positive cells; type: in vivo, human; conditions: cycle 2, day 28; n = 7; range −30 to +30%
Procedure: Staining was evaluated in tumor cells only.
Results were analyzed using descriptive statistics.

[3] = design: method as in PMID 31721572; conditions: preclinical; cited from earlier work
[4] = Amcenestrant plasma pharmacokinetics (LC-MS/MS, non-compartmental analysis); type: in vivo, human; conditions: for AUC(0-t) / Cmax / Tmax: human, plasma, oral
Procedure: To evaluate pharmacokinetics in Part A, venous blood samples were collected pre-dose and at regular intervals on cycle 1, day 1 (up to 48 h), on day 3 (up to 24 h), and on day 22 (up to 24 h). […] The validated range was 5 ng/mL to 5000 ng/mL.
In Part B, venous blood samples were collected pre-dose and at regular intervals on cycle 1, day 1 (up to 24 h), and on day 22 (up to 24 h).
NCA was performed using Phoenix® software.

CYP3A = experiment: 4β-hydroxycholesterol ratio, induction/inhibition effect on CYP3A; type: in vivo, human; conditions: ≥200 mg QD
[5] = system: ER+/HER2− advanced breast cancer; experiment: Antitumor activity per RECIST v1.1 (ORR, CBR, best overall response); type: in vivo, human; conditions: Part A, local review, n = 16
[6] = Part A, repeated QD, Cycle 1 Day 22, fasting, 20 mg, N 3
[7] = Part A, repeated QD, Cycle 1 Day 22, fasting, 150 mg, N 2
[8] = Part A, repeated QD, Cycle 1 Day 22, fasting, 200 mg, N 3
[9] = Part A, repeated QD, Cycle 1 Day 22, fasting, 400 mg, N 3
[10] = Part A, repeated QD, Cycle 1 Day 22, fasting, 600 mg, N 3
[11] = Part B, 400 mg QD, Day 22, N 13

O=C(O)c1ccc2c(c1)CCCC(c1ccc(Cl)cc1Cl)=C2c1ccc(O[C@H]2CCN(CCCF)C2)cc1 [amcenestrant, 6-(2,4-Dichlorophenyl)−5-[4-[(3S)−1-(3-fluoropropyl)pyrrolidin-3-yl]oxyphenyl]−8,9-dihydro-7H-benzo[7]annulene-2-carboxylic acid]
ER activation score by GSVA, median change from screening ([1]; cycle 2, day 28, n = 5, range −1.1 to +0.4): −0.4
ER activation score, median change from screening ([1]; patients who showed clinical benefit, n = 4, range −1.1 to 0): −0.6
ER activation score, change from screening ([1]; the patient with no clinical benefit): +0.4
amcenestrant excreted in urine over the 24-h interval [2]: < 0.1 % of the administered dose
median change from screening in percentage of Ki67 positive cells (Ki67): −8%
metabolic stability [3]: metabolically stable
total variability of exposure ([4]; 400 mg dose): < 40%
dose proportionality of exposure ([4]; 20–600 mg QD, single or multiple administrations): did not deviate significantly from dose proportionality; also recorded: exposure increased proportionally with doses up to 600 mg
accumulation on day 22 ([4]; Part A, doses ≥400 mg QD): No accumulation was observed
delay of median tmax by food ([4]; Part A, moderate fat breakfast): ≈ 1 h
food effect on exposure ([4]; Part A, moderate fat breakfast): modestly increased exposure
CLss/F, Geometric mean (CV%) [4, 6]: 14.8 (75.8) L/h
CLss/F, Mean ± SD [4, 6]: 18.0 ± 13.7 L/h
Ctrough, Mean ± SD [4, 6]: 12.6 ± 13.6 ng/mL
CLss/F, Geometric mean (CV%) [4, 7]: 9.99 (46.3) L/h
CLss/F, Mean ± SD [4, 7]: 10.6 ± 4.89 L/h
Ctrough, Geometric mean (CV%) [4, 7]: 134 (15.7) ng/mL
Ctrough, Mean ± SD [4, 7]: 135 ± 21.2 ng/mL
CLss/F, Geometric mean (CV%) [4, 8]: 14.9 (28.0) L/h
CLss/F, Mean ± SD [4, 8]: 15.3 ± 4.30 L/h
Ctrough, Geometric mean (CV%) [4, 8]: 115 (73.0) ng/mL
Ctrough, Mean ± SD [4, 8]: 140 ± 102 ng/mL
CLss/F, Geometric mean (CV%) [4, 9]: 13.5 (95.7) L/h
CLss/F, Mean ± SD [4, 9]: 18.1 ± 17.4 L/h
Ctrough, Geometric mean (CV%) [4, 9]: 245 (79.3) ng/mL
Ctrough, Mean ± SD [4, 9]: 397 ± 315 ng/mL
CLss/F, Geometric mean (CV%) [4, 10]: 14.4 (26.9) L/h
CLss/F, Mean ± SD [4, 10]: 14.7 ± 3.96 L/h
Cmax, Geometric mean (CV%) [4, 10]: 5510 (17.3) ng/mL
Ctrough, Geometric mean (CV%) [4, 10]: 350 (88.2) ng/mL
Ctrough, Mean ± SD [4, 10]: 449 ± 396 ng/mL
Cmax, Geometric mean (CV%) ([4]; Part B, 400 mg QD, Day 1, N 16): 5460 (46.8) ng/mL
Tlag, Median ([4]; Part B, 400 mg QD, Day 1, N 16): 0 h
CLss/F, Geometric mean (CV%) [4, 11]: 9.90 (41.0) L/h
CLss/F, Mean ± SD [4, 11]: 10.6 ± 4.35 L/h
apparent total clearance from plasma at steady state (CLss/F) ([4]; Part B, 400 mg QD, day 22): 10.6 L/h
coefficient of variation for AUC0-24h ([4]; Part B, 400 mg QD, day 22): 37.5%
coefficient of variation for Cmax ([4]; Part B, 400 mg QD, day 22): 28.0%
AUC(0-t) ([4]; 400 mg, Part B, 400 mg QD, Day 1, N 16, read-out: AUC0-24, Geometric mean (CV%)): 44800 ng·h/mL
AUC(0-t) ([4]; 400 mg, Part B, 400 mg QD, Day 1, N 16, read-out: AUC0-24, Mean ± SD): 50900 ± 26000 ng·h/mL
Cmax ([4]; 400 mg, Part B, 400 mg QD, Day 1, N 16, read-out: Cmax, Mean ± SD): 6020 ± 2810 ng/mL
AUC(0-t) ([4]; 400 mg, Part B, 400 mg QD, Day 22, N 13, read-out: AUC0-24, Mean ± SD): 43200 ± 16200 ng·h/mL
Cmax ([4]; 400 mg, Part B, 400 mg QD, Day 22, N 13, read-out: Cmax, Geometric mean (CV%)): 4220 ng/mL
Cmax ([4]; 400 mg, Part B, 400 mg QD, Day 22, N 13, read-out: Cmax, Mean ± SD): 4380 ± 1230 ng/mL
Tmax ([4]; Part A, single dose day 1, starting from the 150-mg dose, read-out: median time to maximum concentration [tmax]): ~3 h
Tmax ([4]; Part B, 400 mg QD, Day 1, N 16, read-out: tmax, Median): 3.98 h
effect on CYP3A liver enzyme activity (CYP3A): can induce cytochrome P450 (CYP) 3 A liver enzyme activity
objective response rate (ORR) [5]: 6.3%
stable disease (SD), patients [5]: 50%

Source: PMC9284491 (Nature Communications, 2022)
